Test results as given in patent publication US12599672B2, “KRAS proteolysis targeting chimeras” (PAQ Therapeutics Inc., priority 2023, dated 2026).

Key:
Type in all cases: cell-based
KRAS G12D = target: T1, KRAS G12D (Homo sapiens, UniProt P01116, G12D); test: KRAS G12D HiBit assay; details: AsPc-1-KRAS (G12D)-HiBit-KI cell, compound treatment for 24 hours, class symbols; for DC50: absolute DC50
T1 construct: AsPc-1-KRAS (G12D)-HiBit-KI cell (Pharmaron); host or cells: AsPc-1-KRAS (G12D)-HiBit-KI cells (HiBiT knock-in at the endogenous KRAS locus)
T1 sequence (P01116 1-188 isoform P01116-2 G12D): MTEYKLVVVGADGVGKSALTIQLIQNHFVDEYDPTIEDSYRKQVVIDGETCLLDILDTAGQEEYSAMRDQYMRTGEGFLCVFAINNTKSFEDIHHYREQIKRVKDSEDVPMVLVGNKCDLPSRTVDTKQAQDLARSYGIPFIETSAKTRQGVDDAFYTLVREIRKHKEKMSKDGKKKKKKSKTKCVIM
Outline: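 HiBiT luminescence, detected by adding lytic buffer, substrate and LgBiT protein, served as the KRAS G12D read-out. Compounds, serially diluted 3-fold over 10 points from 0.3 mM DMSO stock, were on cells for 24 h; percent inhibition normalized to cells given 0.1% DMSO only.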

KRAS G12V = target: T2, KRAS G12V (Homo sapiens, UniProt P01116, G12V); test: KRAS G12V HiBit assay; details: SW620-KRAS (G12V)-HiBit-KI cells, compound treatment for 24 hours, class symbols
T2 construct: SW620-KRAS (G12V)-HiBit-KI cell (Pharmaron); host or cells: SW620-KRAS (G12V)-HiBit-KI cells (HiBiT knock-in at the endogenous KRAS locus)
T2 sequence (P01116 1-188 isoform P01116-2 G12V): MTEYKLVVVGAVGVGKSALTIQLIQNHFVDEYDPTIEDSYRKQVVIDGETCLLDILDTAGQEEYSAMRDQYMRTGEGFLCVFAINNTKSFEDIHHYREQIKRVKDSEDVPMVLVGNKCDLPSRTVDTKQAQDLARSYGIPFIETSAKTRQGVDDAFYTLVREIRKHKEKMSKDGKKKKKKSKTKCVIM
Outline: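 Luminescence from lytic Nano-Glo HiBiT detection with LgBiT read KRAS G12V levels after 24 h compound exposure. Dilutions were 10-point, 3-fold, from a 0.3 mM DMSO stock. Degradation activity was normalised to cells given 0.1% DMSO alone.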

KRAS = target: T3, KRAS (Homo sapiens, UniProt P01116); test: KRASamp MSD assay; details: KE39 (KRAS amplified) cells, treated with test compounds for 24 hr, MSD readout of KRAS degradation
T3 construct: endogenous in cells; host or cells: KE39 (KRAS amplified) cells
T3 sequence (P01116 1-188 isoform P01116-2): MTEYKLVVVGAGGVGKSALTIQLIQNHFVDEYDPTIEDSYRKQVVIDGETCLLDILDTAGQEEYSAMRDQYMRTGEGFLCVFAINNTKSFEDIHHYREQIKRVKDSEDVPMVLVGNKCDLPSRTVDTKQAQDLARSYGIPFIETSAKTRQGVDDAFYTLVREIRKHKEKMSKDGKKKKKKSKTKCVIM
Method: KE39 (KRAS amplified) cells were cultured in RPMI 1640 medium (Gibco, 11875093), seeded into 96 well plate and treated with test compounds for 24 hr. The cells were washed with PBS and lysed in plate for 1 hr at 4° C. with agitation in RIPA buffer (Cat No. BP-115D) supplemented with protease and phosphatase inhibitor cocktail. The lysates were loaded into MSD plate coated with KRAS capture antibody (LSBio, C175665, 1:1000) for 1 h at RT with agitation. The plate was then washed three times with TBST and incubated with KRAS detection antibody (Abcam, Ab275876. 1:2000) for 1 h at RT. After washing three times with TBST, the plate was incubated with secondary detection antibody GAR (1:500) for 1 hr at RT followed with 3×TBST washing. 2×MSD reading buffer was added into individual wells and the plate was finally read by MSD reader (MSD, SQ 120 MM). The recombinant WT KRAS protein was used for standard curve generation and protein quantification. The degradation activity was calculated using the following formula: […]
DC50 was calculated by fitting the curve using GraphPad Prism v8.0.2 (analysis 263): […]

Structure (SMILES)	DC50 (KRAS G12D) [µM]	Average Dmax (KRAS G12D)	DC50 (KRAS G12V) [µM]	DC50 (KRAS) [µM]	Dmax (KRAS G12D) [%]
CCc1c(F)ccc2cc(O)cc(-c3ncc4c(N5CCC[C@@](C)(O)C5)nc(OC[C@@]56CCCN5[C@H](COC(=O)N5CCC(CN7CCC(c8ccc9c(c8)n(C)c(=O)n9C8CCC(=O)NC8=O)CC7)CC5)CC6)nc4c3F)c12 (stereo partly drawn) [Compound 1, [(3S,8S)-8-[[7-(8-Ethyl-7-fluoro-3-hydroxy-1-naphthyl)-8-fluoro-4-[(3R)-3-hydroxy-3-methyl-1-piperidyl]pyrido[4,3-d]pyrimidin-2-yl]oxymethyl]-1,2,3,5,6,7-hexahydropyrrolizin-3-yl]methyl 4-[[4-[1-(2,6-dioxo-3-piperidyl)-3-methyl-2-oxo-benzimidazol-5-yl]-1-piperidyl]methyl]piperidine-1-carboxylate]	< 0.1	A (Dmax greater than 50%)	< 0.01	< 0.001	–
CCc1c(F)ccc2cc(O)cc(-c3ncc4c(N5CCC[C@@](C)(O)C5)nc(OC[C@@]56CCCN5[C@H](COC(=O)N5CCC(OCCCc7cccc8c7n(C)c(=O)n8C7CCC(=O)NC7=O)CC5)CC6)nc4c3F)c12 (stereo partly drawn) [Compound 2, [(3S,8S)-8-[[7-(8-Ethyl-7-fluoro-3-hydroxy-1-naphthyl)-8-fluoro-4-[(3R)-3-hydroxy-3-methyl-1-piperidyl]pyrido[4,3-d]pyrimidin-2-yl]oxymethyl]-1,2,3,5,6,7-hexahydropyrrolizin-3-yl]methyl4-[3-[1-(2,6-dioxo-3-piperidyl)-3-methyl-2-oxo-benzimidazol-4-yl]propoxy]piperidine-1-carboxylate]	< 0.1	–	< 0.01	< 0.001	> 50
C#Cc1c(F)ccc2cc(O)cc(-c3ncc4c(N5CCC[C@@](C)(O)C5)nc(OC[C@@]56CCCN5[C@H](COC(=O)N5CCC(CN7CCC(c8ccc9c(c8)n(C)c(=O)n9C8CCC(=O)NC8=O)CC7)CC5)CC6)nc4c3F)c12 (stereo partly drawn) [Compound 4, [(3S,8S)-8-[[7-(8-Ethynyl-7-fluoro-3-hydroxy-1-naphthyl)-8-fluoro-4-[(3R)-3-hydroxy-3-methyl-1-piperidyl]pyrido[4,3-d]pyrimidin-2-yl]oxymethyl]-1,2,3,5,6,7-hexahydropyrrolizin-3-yl]methyl4-[[4-[1-(2,6-dioxo-3-piperidyl)-3-methyl-2-oxo-benzimidazol-5-yl]-1-piperidyl]methyl]piperidine-1-carboxylate]	< 0.1	A (Dmax greater than 50%)	< 0.01	< 0.001	–
C#Cc1c(F)ccc2cc(O)cc(-c3ccc4c(N5CCC[C@@](C)(O)C5)nc(OCC5(CN6CCN(CC7CCN(c8ccc9c(c8)n(C)c(=O)n9C8CCC(=O)NC8=O)CC7)CC6)CC5)nc4c3F)c12 (some centres unmarked) [Compound 11]	> 0.3	–	< 0.01	0.001 to 0.01	–
C#Cc1c(F)ccc2cc(O)cc(-c3ccc4c(N5CCC[C@@](C)(O)C5)nc(OCC5(CN6CCC(CN7CCC(c8ccc9c(c8)n(C)c(=O)n9C8CCC(=O)NC8=O)CC7)CC6)CC5)nc4c3F)c12 (some centres unmarked) [Compound 13]	< 0.1	–	< 0.01	< 0.001	–
C#Cc1c(F)ccc2cc(O)cc(-c3ncc4c(N5CCC[C@@](C)(O)C5)nc(OCC5(CN6CCN(CC7CCN(c8ccc9c(c8)n(C)c(=O)n9C8CCC(=O)NC8=O)CC7)CC6)CC5)nc4c3F)c12 (stereo partly drawn) [Compound 14, 3-[5-[4-[[4-[[1-[[7-(8-Ethynyl-7-fluoro-3-hydroxy-1-naphthyl)-8-fluoro-4-[(3R)-3-hydroxy-3-methyl-1-piperidyl]pyrido[4,3-d]pyrimidin-2-yl]oxymethyl]cyclopropyl]methyl]piperazin-1-yl]methyl]-1-piperidyl]-3-methyl-2-oxo-benzimidazol-1-yl]piperidine-2,6-dione]	< 0.1	–	< 0.01	< 0.001	> 50
C#Cc1c(F)ccc2cc(O)cc(-c3ncc4c(N5CCCCC5)nc(OCC5(CN6CCN(CC7CCN(c8ccc9c(c8)n(C)c(=O)n9C8CCC(=O)NC8=O)CC7)CC6)CC5)nc4c3F)c12 (centres unmarked) [Compound 15]	0.1 to 0.3	–	> 0.1	≥ 0.01	> 50
C#Cc1c(F)ccc2cccc(-c3ncc4c(N5CCC[C@@](C)(O)C5)nc(OCC5(CN6CC7(C6)CN(c6ccc8c(c6)n(C)c(=O)n8C6CCC(=O)NC6=O)C7)CC5)nc4c3F)c12 (some centres unmarked) [Compound 31]	> 0.3	–	> 0.1	≥ 0.01	–
CCc1c(F)ccc2cc(O)cc(-c3ncc4c(N5CCC[C@@](C)(O)C5)nc(OCC5(CN6CCN(CC7CCN(c8ccc9c(c8)n(C)c(=O)n9C8CCC(=O)NC8=O)CC7)CC6)CC5)nc4c3F)c12 (some centres unmarked) [Compound 34]	< 0.1	–	< 0.01	< 0.001	–
C#Cc1c(F)ccc2cccc(-c3ncc4c(N5CCC[C@@](C)(O)C5)nc(OCC5(CN6CCC7(CC6)CN(c6ccc8c(c6)n(C)c(=O)n8C6CCC(=O)NC6=O)C7)CC5)nc4c3F)c12 (some centres unmarked) [Compound 40]	> 0.3	–	> 0.1	≥ 0.01	–
C#Cc1c(F)ccc2cc(O)cc(-c3ncc4c(N5CCC[C@@](C)(O)C5)nc(OCC5(CN6CCN(CC7CCN(c8ccc9c(c8)C(=O)N(C8CCC(=O)NC8=O)C9=O)CC7)CC6)CC5)nc4c3F)c12 (some centres unmarked) [Compound 50]	< 0.1	–	< 0.01	0.001 to 0.01	–
C#Cc1c(F)ccc2cc(O)cc(-c3ncc4c(N5CCC[C@@](C)(O)C5)nc(OCC5(CN6CCC7(CC6)CCN(c6ccc8c(c6)n(C)c(=O)n8C6CCC(=O)NC6=O)CC7)CC5)nc4c3F)c12 (some centres unmarked) [Compound 52]	< 0.1	–	< 0.01	≥ 0.01	–
C#Cc1c(F)ccc2cccc(-c3ncc4c(N5CCC[C@@](C)(O)C5)nc(OCC5(CN6CCN(CC7CCN(c8ccc9c(c8)C(=O)N(C8CCC(=O)NC8=O)C9=O)CC7)CC6)CC5)nc4c3F)c12 (some centres unmarked) [Compound 55]	< 0.1	–	> 0.1	≥ 0.01	–
C#Cc1c(F)ccc2cc(O)cc(-c3ncc4c(N5CCC[C@@](C)(O)C5)nc(OCC5(CN6CCC7(CC6)CC(N6CCN(c8ccc9c(c8)n(C)c(=O)n9C8CCC(=O)NC8=O)CC6)C7)CC5)nc4c3F)c12 (some centres unmarked) [Compound 56]	< 0.1	–	< 0.01	< 0.001	–
C#Cc1c(F)ccc2cc(O)cc(-c3ncc4c(N5CCC[C@@](C)(O)C5)nc(OCC5(CN6CCC(N7CCC(c8ccc9c(C%10CCC(=O)NC%10=O)nn(C)c9c8)CC7)CC6)CC5)nc4c3F)c12 (some centres unmarked) [Compound 58]	< 0.1	–	< 0.01	≥ 0.01	–
C#Cc1c(F)ccc2cc(O)cc(-c3ncc4c(N5CCC[C@@](C)(O)C5)nc(OCC5(CN6CCC7(CC6)CC(N6CCC(c8cccc9c8n(C)c(=O)n9C8CCC(=O)NC8=O)CC6)C7)CC5)nc4c3F)c12 (some centres unmarked) [Compound 64]	< 0.1	–	< 0.01	< 0.001	–
C#Cc1c(F)ccc2cc(O)cc(-c3ncc4c(N5CCC[C@@](C)(O)C5)nc(OCC5(CN6CCC7(CC6)CCN(c6cccc8c6n(C)c(=O)n8C6CCC(=O)NC6=O)CC7)CC5)nc4c3F)c12 (some centres unmarked) [Compound 67]	< 0.1	–	< 0.01	0.001 to 0.01	–
C#Cc1c(F)ccc2cc(O)cc(-c3ncc4c(N5CCC[C@@](C)(O)C5)nc(OCC5(CN6CCC7(CC6)CC(N6CCC(c8cccc9c(C%10CCC(=O)NC%10=O)nn(C)c89)CC6)C7)CC5)nc4c3F)c12 (some centres unmarked) [Compound 69]	< 0.1	–	< 0.01	< 0.001	–
C#Cc1c(F)ccc2cc(O)cc(-c3ncc4c(N5CCC[C@@](C)(O)C5)nc(OCC5(CN6CCC7(CC6)CC(N6CCN(c8cccc9c8n(C)c(=O)n9C8CCC(=O)NC8=O)CC6)C7)CC5)nc4c3F)c12 (some centres unmarked) [Compound 71]	< 0.1	–	< 0.01	< 0.001	–
C#Cc1c(F)ccc2cc(O)cc(-c3ncc4c(N5CCC[C@@](C)(O)C5)nc(OCC5(CN6CCC(N7CCC(c8cccc9c(C%10CCC(=O)NC%10=O)nn(C)c89)CC7)CC6)CC5)nc4c3F)c12 (some centres unmarked) [Compound 77]	< 0.1	–	< 0.01	0.001 to 0.01	–
